# Like-named read-outs stand apart in the source and are kept apart here.
# Assays:
# zebrafish larvae = test: Melanogenesis (depigmentation) assay using zebrafish embryos; format: in vivo
# Method: To assess depigmentation in vivo, wild-type zebrafish (Danio rerio) embryos were acquired free of charge from the Zebrafish Center for Disease Modeling (ZCDM) located at Chungnam National University in Daejeon, Republic of Korea. The zebrafish were raised in tanks maintained at 28 °C in the ZCDM. The tanks were oxygenated, and the tank lights were turned off for 10 h and on for 14 h. The zebrafish embryos used for in vivo depigmentation experiments were obtained through natural mating. The E3 solution for zebrafish embryos was prepared by dissolving 19.9 mg magnesium sulfate, 6.4 mg potassium chloride, 18.3 mg calcium chloride, and 146.1 mg sodium chloride in 500 mL distilled water. E3-MB (methylene blue) solution was prepared by adding MB to the E3 solution to create a 0.001% MB solution. The acquired zebrafish embryos were transferred to a culture dish containing the E3-MB solution. The culture dish was incubated at 28 °C until zebrafish embryos were used. Since zebrafish embryos are sensitive and can be easily killed by the chorion removal process 20 h post-fertilization (20 hpf), the chorion was removed at 24 hpf through treatment with pronase (Sigma-Aldrich, St. Louis, MO, USA). Five dechorionated zebrafish embryos were transferred to each well of 48-well microplates containing 250 μL E3 solution. […] Zebrafish larvae were anesthetized with tricaine at 76 hpf and placed on a 1% methylcellulose block to determine the degree of zebrafish larva depigmentation. Dorsal and lateral images of the zebrafish larvae were acquired using an SMZ745T microscope (Nikon, Tokyo, Japan). The pigmented areas of the dorsal and lateral images were obtained using CS analyzer 3.0 image analysis software (ATTO, Tokyo, Japan). Each assay (n = 7) was independently performed two times.
# [1] = Copper(II) ion-chelating activity using pyrocatechol violet; details: test samples 100 μM, pH 6.0
# Method: Copper(II) ion-chelating activity was measured using pyrocatechol violet reagent, a copper(II)-chelating agent. Copper(II) sulfate solution (10 μL, 1 mg/mL) was added to each well of a 96-well microplate containing acetic acid–sodium acetate buffer (280 μL, 50 mM [pH 6.0]), 2-MMBI derivative (1–10; 10 μL, 100 μM as a final concentration), and pyrocatechol violet (6 μL, 4 mM). Absorbance was measured at 632 nm using a VersaMax™ reader after the microplate was incubated for 20 min at 24 °C. Cu(II) ion-chelating activity (%) = 100 × [(Abscon − Abssam)/Abscon] where Abscon and Abssam are the absorbances of the control and samples, respectively. Each experiment was independently performed in triplicate.
# [2] = Reactive oxygen species removal activity assay (SIN-1, DCFH); details: test samples 40 μM; SIN-1 10 μM
# Method: To assess reactive oxygen species (ROS) removal activity, a DCFH solution was prepared by mixing 50 μL DCFH-DA (1.25 mM), 50 μL esterase (0.6 unit/μL), and 4.9 mL phosphate buffer (50 mM) and maintained in the dark for 30 min. The SIN-1 solution (10 μL) was added to each well of a 96-black well that contained the test sample (10 μL; 2-MMBI derivatives 1–10 and Trolox [positive material]) and phosphate buffer (180 μL). 2-MMBI derivatives, Trolox, and SIN-1 were exposed at final concentrations of 40, 40, and 10 μM, respectively. The prepared DCFH solution (50 μL) was added to each well after 10 min. The fluorescence intensity of 2′,7′-dichlorofluorescein in the wells was measured at 535 nm using a microplate reader (Berthold Advances GmbH & Co., Bad Wildbad, Germany) with an excitation wavelength of 485 nm. Each experiment was conducted independently four times.
# mushroom TYR [3] = biological target: T1, mushroom TYR (Agaricus bisporus, UniProt C7FF04); test: Mushroom TYR activity assay with and without CuSO4; format: biochemical; details: 20 μM derivative, L-tyrosine
# Method: To determine whether copper(II) ions influence the TYR-inhibitory activity of 2-MMBI derivatives, the effects of these derivatives on mushroom TYR activity were measured with and without CuSO4. Briefly, mushroom TYR aqueous solution (20 μL, 1 unit/μL) was mixed with 2-MMBI derivatives (1, 3, and 8–10) (10 μL, final concentration: 20 μM) and with the substrate solution (170 μL), comprising 17.2 mM phosphate buffer (pH 6.5) and 345 μM L-tyrosine, in the presence or absence of CuSO4 (50 μL, final concentration: 50 μM) in each well of a 96-well plate. […] Each assay was carried out independently in triplicate.
# B16F10 cells = test: Melanin content measurement assay in B16F10 cells; format: cell-based, murine; details: α-MSH 1 μM plus IBMX 200 μM, 72 h
# Method: A 6-well plate containing 5 × 10^3 B16F10 cells per well was incubated at 37 °C and 5% CO2 for 1 day. […] After 1 h, 1 μM α-MSH and 200 μM IBMX were added to each well, and the plate was subsequently incubated at 37 °C and 5% CO2 for 72 h. The cells were exposed to […] 1N-NaOH solution and cultured at 60 °C for 1 h after washing with PBS. The lysates were transferred to each well of a 96-well plate, and the optical density at 405 nm was recorded using a VersaMax™ reader. […] Each assay was independently performed three times.
# mushroom TYR [4] = biological target: T1, mushroom TYR; test: Kinetic studies on mushroom TYR (Lineweaver–Burk and Dixon plots); format: biochemical; details: L-dopa as substrate
# Method: Kinetic experiments were performed to obtain Lineweaver–Burk plots for the analysis of mushroom TYR kinetics. Mushroom TYR solution (20 μL, 150 units/mL) was added to each well of a 96-well microplate containing 2-MMBI derivatives (10 μL; 0, 7.5, 15, and 30 μM for 1; 0, 5, 10, and 20 μM for 3 and 8; and 0, 12.5, 25, and 50 μM for 9) and a substrate solution (170 μL) composed of sodium phosphate buffer (17.2 mM; pH 6.5) and L-dopa (various concentrations: 0.5, 1, 2, 4, 8, and 16 mM). […] Lineweaver–Burk plots for each 2-MMBI derivative were obtained by plotting the value of 1/[substrate] against the value of (min/ΔOD475). Lineweaver–Burk plots were transformed into corresponding Dixon plots by plotting the value of (min/ΔOD475) against the value of the 2-MMBI derivative concentration.
# B16F10 cellular TYR = biological target: T2, B16F10 cellular TYR (Mus musculus, UniProt P11344); test: TYR activity assay in B16F10 cells; format: cell-based, murine; details: 2, 5, and 10 μM; α-MSH 1 μM plus IBMX 200 μM; 72 h
# T2 construct: The in situ cellular TYR activities of the 2-MMBI derivatives were investigated using B16F10 cells; endogenous in cells; host or cells: B16F10 murine melanoma cells stimulated with alpha-MSH and IBMX
# T2 sequence (P11344 19-533): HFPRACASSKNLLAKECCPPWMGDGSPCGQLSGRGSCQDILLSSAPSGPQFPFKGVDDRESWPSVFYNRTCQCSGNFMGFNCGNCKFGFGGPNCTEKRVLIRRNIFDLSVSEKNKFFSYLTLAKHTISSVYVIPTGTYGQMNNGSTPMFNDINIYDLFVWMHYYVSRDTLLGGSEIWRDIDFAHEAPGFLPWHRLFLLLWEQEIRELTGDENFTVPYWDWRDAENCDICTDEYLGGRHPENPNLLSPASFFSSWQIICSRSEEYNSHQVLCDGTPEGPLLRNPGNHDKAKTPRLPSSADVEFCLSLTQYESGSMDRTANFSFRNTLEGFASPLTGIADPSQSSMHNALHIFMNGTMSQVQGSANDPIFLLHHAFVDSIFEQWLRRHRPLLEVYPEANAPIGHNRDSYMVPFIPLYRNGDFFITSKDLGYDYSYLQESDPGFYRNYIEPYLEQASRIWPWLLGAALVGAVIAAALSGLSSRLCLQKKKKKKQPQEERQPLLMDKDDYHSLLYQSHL
# Method: A 6-well plate containing 5 × 10^3 B16F10 cells per well was incubated (37 °C and 5% CO2) for 1 day. […] Stimulators (1 μM α-MSH and 200 μM IBMX) were added after 1 h, and the plate was incubated (37 °C and 5% CO2) for 72 h. After washing with PBS, 100 μL lysis buffer consisting of 1% Triton X-100, 1 mM phenylmethylsulfonyl fluoride, and 50 mM sodium phosphate buffer (pH 6.5) in a volume ratio of 1:1:18 was added to each well. Following an incubation period of 30 min at −80 °C, the cell lysates were centrifuged at 12,000× g for 10 min at 4 °C to obtain the supernatants. […] Each assay was independently performed three times.
# [5] = DPPH radical removal assay; details: 500 μM; 30 min in the dark
# Method: An aliquot (20-μL DMSO solution) of a test sample (5 mM 2-MMBI derivatives 1–10 and 5 mM vitamin C [positive material]) was added to each well of a 96-well microplate containing 180 μL DPPH methanol solution (0.2 mM). After the mixture was left in the dark at 22 °C for 30 min, the optical density at 517 nm was recorded using a VersaMax™ reader. Each experiment was conducted independently in triplicate.
# ABTS●+ scavenging assay = details: 100 μM
# Method: A 2.45 mM K2S2O8 aqueous solution was mixed with a 7-mM ABTS aqueous solution in a 1:1 volume ratio. The mixture was left at 20 °C in the dark for 19 h. To adjust the adequate absorbance (0.70 ± 0.01) at 732 nm, the mixture was diluted with methanol. The diluted ABTS^●+ mixture (90 μL) in each well of a 96-well plate was mixed with a test sample (2-MMBI derivatives 1–10 and Trolox [positive material]; 10 μL in EtOH/DMSO [9/1 (v/v)] solution). All test samples were tested at a final concentration of 100 μM. Prior to the measurement of well optical density at 732 nm at 1-min intervals for 10 min using a VersaMax™ reader, the test sample-ABTS^●+ mixture was stored for 2 min in the dark. Each experiment was conducted independently in triplicate.
# T1 sequence (C7FF04 2-392): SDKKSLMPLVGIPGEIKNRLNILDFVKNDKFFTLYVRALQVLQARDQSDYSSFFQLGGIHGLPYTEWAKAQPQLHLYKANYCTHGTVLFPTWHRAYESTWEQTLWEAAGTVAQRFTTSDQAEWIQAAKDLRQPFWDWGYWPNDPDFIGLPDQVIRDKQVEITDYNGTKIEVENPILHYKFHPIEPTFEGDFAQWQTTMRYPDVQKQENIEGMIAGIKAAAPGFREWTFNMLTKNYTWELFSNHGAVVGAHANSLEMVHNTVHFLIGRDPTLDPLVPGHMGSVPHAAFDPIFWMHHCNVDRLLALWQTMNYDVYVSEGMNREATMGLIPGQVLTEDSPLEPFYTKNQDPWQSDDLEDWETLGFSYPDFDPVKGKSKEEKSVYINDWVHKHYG
smiles,measurement,setting,value
"O=[N+]([O-])c1ccc2[nH]c(CS)nc2c1 [Derivative 6, (5-Nitro-1H-benzo[d]imidazol-2-yl)methanethiol]",depigmentation of zebrafish larvae at 0.03 and 0.1 mM,"zebrafish larvae; 0.03 and 0.1 mM, 48 h",did not exhibit significant depigmentation
same,copper chelating activity,[1],35%
same,ROS scavenging activity,[2],stronger ROS scavenging efficacy than the other derivatives
"Cc1ccc2[nH]c(CS)nc2c1 [Derivative 8, (5-Methyl-1H-benzo[d]imidazol-2-yl)methanethiol]",depigmentation of zebrafish larvae at 0.03 mM,"zebrafish larvae; 0.03 mM, compared with kojic acid 20 mM, 48 h",much stronger depigmentation efficacy than kojic acid
same,inhibition at 20 µM,"mushroom TYR [3]; CuSO4 50 μM added externally, read-out: inhibition of mushroom TYR activity with CuSO4",63%
same,inhibition at 20 µM,"mushroom TYR [3]; no CuSO4 added externally, read-out: inhibition of mushroom TYR activity without CuSO4",86 to 89%
same,effect on B16F10 cellular melanin production at 10 μM,B16F10 cells,inhibited melanin production more strongly than kojic acid
same,effect on B16F10 cellular melanin production at three concentrations,"B16F10 cells; 2, 5, and 10 μM",significantly decreased the melanin levels increased by the stimulators in a concentration-dependent manner
same,inhibition mechanism,mushroom TYR [4],mixed TYR inhibitors
same,effect on B16F10 cellular TYR activity,B16F10 cellular TYR,significantly reduced stimulator-enhanced cellular TYR activity in a dose-dependent manner
"O=c1cc(CO)occ1O [Kojic acid, reference compound]","depigmentation of zebrafish larvae, kojic acid","zebrafish larvae; 20 mM, 48 h, compared to control",significantly reduced melanin pigments
same,"pigmentation area of zebrafish larvae (CS analyzer, dorsal and lateral views)","zebrafish larvae; derivatives 0.03 and 0.1 mM, kojic acid 20 mM",significantly reduced pigmentation
same,copper chelating activity,[1],27%
same,effect on B16F10 cellular melanin production at 10 μM,B16F10 cells,decreased the stimulator-induced melanin levels
"O=C1O[C@H]([C@@H](O)CO)C(O)=C1O [L-ASCORBIC acid, L-ascorbic acid]",DPPH radical scavenging activity,[5],97%
"NC(=S)Nc1ccccc1 [PTU, phenylthiourea]",copper chelating activity,[1],37%
"Cc1c(C)c2c(c(C)c1O)CCC(C)(C(=O)O)O2 (stereo not drawn) [Trolox, reference compound]",ABTS●+ inhibition,ABTS●+ scavenging assay,99%
same,ROS scavenging activity,[2],highest ROS scavenging activity

# Reference: article PMC11505594, “Design, Synthesis, and Anti-Melanogenic Activity of 2-Mercaptomethylbenzo[d]imidazole Derivatives Serving as Tyrosinase Inhibitors: An In Silico, In Vitro, and In Vivo Exploration” (Antioxidants, 2024)
